Like-named read-outs stand apart in the source and are kept apart here.
Key:
P. falciparum 3D7 [1] = test: Antimalarial assay against P. falciparum 3D7 (48 h growth, DNA fluorescent dye); format: cell-based, Plasmodium falciparum; settings: for IC50: Plasmodium falciparum
Description: Plasmodium falciparum strain 3D7 was cultured in complete medium (RPMI-1640 supplemented with 10% Albumax II) using O Rh^+ red blood cells in a microaerobic environment (5% CO2, 5% O2, 90% N2). IC50 assay plates were prepared using fourfold serially diluted test compounds in complete medium to a final volume of 50 μL. Then, 50 μL of parasite inoculum at 2% parasitemia ring stage and 1% hematocrit was added to each well and incubated for 48 h in a microaerobic environment. The assay was terminated by freezing at -20 °C before growth measurement. Parasite growth was measured adding 100 μL of lysis buffer supplemented with 1× DNA fluorescent dye (UltraPower, […], Tokyo, Japan), and the fluorescent signal was measured at 495/530 nm. The IC50 value was calculated by GraphPad Prism 9.0 software (La Jolla, California, USA) using the dose-response (four-parameter) function. Artemisinin at 1 μM and complete medium were used as positive and negative controls, respectively.

P. falciparum 3D7 [2] = system: P. falciparum 3D7; parameters: method as in doi:10.3390/M1358; settings: earlier report of the group; read-out: IC50 against P. falciparum 3D7; cited from earlier work
MCF-7 cells = test: Antiproliferative assay against MCF-7 (MTT, 72 h); format: cell-based, Human; settings: for IC50: Homo sapiens, MCF7, MCF-7 cells, 72 h, MTT; for cytotoxicity against MCF-7 cells, in words: compared with the parent compound
Description: Human breast cancer cells (MCF-7) purchased from ATCC were seeded at 2 × 10^3 cells/well on a 96-well black flat-bottom plate and were cultured in high-glucose DMEM (Dulbecco’s modified Eagle medium) supplemented with 10% fetal bovine serum and 1% penicillin/streptomycin. The culture was incubated at 37 °C, 5% CO2 for 24 h. After the incubation period, the test compounds were added into the cell plate at serially diluted concentrations (20, 2, 0.2, 0.02, 0.002, and 0.0002 μM), and the culture was incubated for 72 h at 37 °C, 5% CO2. After the 72 h incubation, the cultured media containing compounds were removed, and the serum-free media containing MTT were added to the same well with additional incubation for 3 h at 37 °C, 5% CO2. After 3 h incubation, the serum-free media containing MTT were removed, and DMSO was added into the same well; the resulting solution was measured for its absorbance at 570 nm using a Multimode Microplate Reader (ENVISION) (PerkinElmer, USA). The IC50 value was calculated using GraphPad. Doxorubicin at 10 µM was used as a positive control in this assay.

[3] = system: human ovarian cancer (SKOV3); parameters: method as in earlier work; settings: patent; cited from earlier work
P. falciparum strains = system: P. falciparum strains; parameters: method as in PMID 24900261, PMID 26317851, PMID 28513586; settings: multiple stages of the malaria parasite; cited from earlier work
[4] = Table 2, blood-stage P. falciparum 3D7, various amino-acid linkers, read-out: IC50 (µM) 3D7 ± SD
[5] = P. falciparum 3D7, read-out: antimalarial activity against 3D7
[6] = Table 3, blood-stage P. falciparum 3D7, various amine side chains, read-out: IC50 (µM) 3D7 ± SD

Compound: COc1cccc(NC(=O)[C@H](C(C)C)n2c(=O)[nH]c3ccccc3c2=O)c1 [Compound 2]
- IC50 (P. falciparum 3D7 [1]; [4]): 0.219 ± 0.024 µM
- IC50 (P. falciparum 3D7 [2]): ~200 nM
- IC50 (MCF-7 cells): 17.5 µM

Compound: CCOC(=O)c1sc(NC(=O)[C@H](C(C)C)n2c(=O)[nH]c3ccccc3c2=O)nc1OC [Compound 3]
- cytotoxicity against SKOV3, in words [3]: highly potent cytotoxicity

Compound: COc1cccc(NCCn2c(=O)[nH]c3ccccc3c2=O)c1 [Compound 4]
- IC50 (P. falciparum 3D7 [1]; [4]): > 10 µM

Compound: COc1cccc(NC(=O)Cn2c(=O)[nH]c3ccccc3c2=O)c1 [Compound 5]
- IC50 (P. falciparum 3D7 [1]; [4]): > 10 µM

Compound: COc1cccc(NC(=O)[C@H](C)n2c(=O)[nH]c3ccccc3c2=O)c1 [Compound 6]
- IC50 (P. falciparum 3D7 [1]; [4]): > 10 µM

Compound: COc1cccc(NC(=O)[C@H](CC(C)C)n2c(=O)[nH]c3ccccc3c2=O)c1 [Compound 7]
- IC50 (P. falciparum 3D7 [1]; [5]): 1 to 3 µM
- IC50 (P. falciparum 3D7 [1]; [4]): 3.25 ± 0.21 µM

Compound: CCC(C(=O)Nc1cccc(OC)c1)n1c(=O)[nH]c2ccccc2c1=O (stereo not drawn) [Compound 8]
- antimalarial activity against 3D7, in words (P. falciparum 3D7 [1]; P. falciparum 3D7): potent sub-micromolar activity
- IC50 (P. falciparum 3D7 [1]; [4]): 0.586 ± 0.032 µM

Compound: CCC[C@@H](C(=O)Nc1cccc(OC)c1)n1c(=O)[nH]c2ccccc2c1=O [Compound 9]
- IC50 (P. falciparum 3D7 [1]; [5]): 1 to 3 µM
- IC50 (P. falciparum 3D7 [1]; [4]): 1.11 ± 0.1 µM

Compound: CC(C)[C@@H](C(=O)Nc1ccccc1)n1c(=O)[nH]c2ccccc2c1=O [Compound 18]
- antimalarial activity against 3D7, in words (P. falciparum 3D7 [1]; P. falciparum 3D7): dramatic loss in the antimalarial activity
- IC50 (P. falciparum 3D7 [1]; [6]): 0.607 ± 0.03 µM
- IC50 (MCF-7 cells): > 20 µM

Compound: CC(C)[C@@H](C(=O)Nc1cccnc1)n1c(=O)[nH]c2ccccc2c1=O [Compound 19]
- antimalarial activity against 3D7, in words (P. falciparum 3D7 [1]; P. falciparum 3D7): decrease in antimalarial activity
- IC50 (P. falciparum 3D7 [1]; [6]): 2.89 ± 0.401 µM
- IC50 (MCF-7 cells): > 20 µM

Compound: CC(C)[C@@H](C(=O)Nc1ccncc1)n1c(=O)[nH]c2ccccc2c1=O [Compound 20]
- antimalarial activity against 3D7, in words (P. falciparum 3D7 [1]; P. falciparum 3D7): decrease in antimalarial activity
- IC50 (P. falciparum 3D7 [1]; [6]): 1.41 ± 0.115 µM
- IC50 (MCF-7 cells): > 20 µM

Compound: CC(C)[C@@H](C(=O)Nc1cccc(F)c1)n1c(=O)[nH]c2ccccc2c1=O [Compound 21]
- antimalarial activity against 3D7, in words (P. falciparum 3D7 [1]; P. falciparum 3D7): excellent activity
- IC50 (P. falciparum 3D7 [1]; [6]): 0.036 ± 0.005 µM
- IC50 (MCF-7 cells): > 20 µM

Compound: CC(C)[C@@H](C(=O)Nc1ccc(F)cc1)n1c(=O)[nH]c2ccccc2c1=O [Compound 22]
- antimalarial activity against 3D7, in words (P. falciparum 3D7 [1]; P. falciparum 3D7): good antimalarial activity
- IC50 (P. falciparum 3D7 [1]; [6]): 0.36 ± 0.034 µM
- IC50 (MCF-7 cells): > 20 µM

Compound: CC(C)[C@@H](C(=O)Nc1ccc(F)c(F)c1)n1c(=O)[nH]c2ccccc2c1=O [Compound 23]
- IC50 (P. falciparum 3D7 [1]; [6]): 0.038 ± 0.009 µM
- IC50 (MCF-7 cells): 9.74 µM
- cytotoxicity against MCF-7 cells, in words (MCF-7 cells): slightly higher cytotoxicity

Compound: CC(C)[C@@H](C(=O)Nc1cccc(Cl)c1)n1c(=O)[nH]c2ccccc2c1=O [Compound 24]
- antimalarial activity against 3D7, in words (P. falciparum 3D7 [1]; P. falciparum 3D7): excellent activity
- IC50 (P. falciparum 3D7 [1]; [6]): 0.022 ± 0.005 µM
- IC50 (MCF-7 cells): > 20 µM

Compound: CC(C)[C@@H](C(=O)Nc1ccc(Cl)cc1)n1c(=O)[nH]c2ccccc2c1=O [Compound 25]
- antimalarial activity against 3D7, in words (P. falciparum 3D7 [1]; P. falciparum 3D7): good antimalarial activity
- IC50 (P. falciparum 3D7 [1]; [6]): 0.711 ± 0.038 µM
- IC50 (MCF-7 cells): 10.5 µM

Compound: CC(C)[C@@H](C(=O)Nc1ccc(Cl)c(Cl)c1)n1c(=O)[nH]c2ccccc2c1=O [Compound 26]
- antimalarial activity against 3D7, in words (P. falciparum 3D7 [1]; P. falciparum 3D7): less potent antimalarial
- IC50 (P. falciparum 3D7 [1]; [6]): 0.406 ± 0.034 µM
- IC50 (MCF-7 cells): > 20 µM
- cytotoxicity against MCF-7 cells, in words (MCF-7 cells): slightly higher cytotoxicity

Compound: CC(C)[C@@H](C(=O)Nc1ccc(F)c(Cl)c1)n1c(=O)[nH]c2ccccc2c1=O [Compound 27]
- IC50 (P. falciparum 3D7 [1]; [6]): 0.059 ± 0.012 µM
- IC50 (MCF-7 cells): > 20 µM

Compound: CC(C)[C@@H](C(=O)NCc1ccccc1)n1c(=O)[nH]c2ccccc2c1=O [Compound 28]
- antimalarial activity against 3D7, in words (P. falciparum 3D7 [1]; P. falciparum 3D7): dramatic loss in the antimalarial activity
- IC50 (P. falciparum 3D7 [1]; [6]): > 10 µM
- IC50 (MCF-7 cells): > 20 µM

Compound: COc1ccc(NC(=O)[C@H](C(C)C)n2c(=O)[nH]c3ccccc3c2=O)cc1 [Compound 29]
- antimalarial activity against 3D7, in words (P. falciparum 3D7 [1]; P. falciparum 3D7): dramatic loss in the antimalarial activity
- IC50 (P. falciparum 3D7 [1]; [6]): > 10 µM
- IC50 (MCF-7 cells): > 20 µM

Compound: COc1ccccc1CNC(=O)CCn1c(=O)[nH]c2ccsc2c1=O [MMV019066]
- parasite growth inhibitory activity (P. falciparum strains): < 1 µM

Compound: COc1ccccc1CNC(=O)CCn1c(=O)[nH]c2ccccc2c1=O [MMV665916]
- parasite growth inhibitory activity (P. falciparum strains): < 1 µM

Source: PMC10096129, “Rational Design and Lead Optimisation of Potent Antimalarial Quinazolinediones and Their Cytotoxicity against MCF-7” (Molecules, 2023)
